For this assay, the target named is T1, Progesterone receptor (Homo sapiens, UniProt P06401).
T1 sequence (P06401 whole entry): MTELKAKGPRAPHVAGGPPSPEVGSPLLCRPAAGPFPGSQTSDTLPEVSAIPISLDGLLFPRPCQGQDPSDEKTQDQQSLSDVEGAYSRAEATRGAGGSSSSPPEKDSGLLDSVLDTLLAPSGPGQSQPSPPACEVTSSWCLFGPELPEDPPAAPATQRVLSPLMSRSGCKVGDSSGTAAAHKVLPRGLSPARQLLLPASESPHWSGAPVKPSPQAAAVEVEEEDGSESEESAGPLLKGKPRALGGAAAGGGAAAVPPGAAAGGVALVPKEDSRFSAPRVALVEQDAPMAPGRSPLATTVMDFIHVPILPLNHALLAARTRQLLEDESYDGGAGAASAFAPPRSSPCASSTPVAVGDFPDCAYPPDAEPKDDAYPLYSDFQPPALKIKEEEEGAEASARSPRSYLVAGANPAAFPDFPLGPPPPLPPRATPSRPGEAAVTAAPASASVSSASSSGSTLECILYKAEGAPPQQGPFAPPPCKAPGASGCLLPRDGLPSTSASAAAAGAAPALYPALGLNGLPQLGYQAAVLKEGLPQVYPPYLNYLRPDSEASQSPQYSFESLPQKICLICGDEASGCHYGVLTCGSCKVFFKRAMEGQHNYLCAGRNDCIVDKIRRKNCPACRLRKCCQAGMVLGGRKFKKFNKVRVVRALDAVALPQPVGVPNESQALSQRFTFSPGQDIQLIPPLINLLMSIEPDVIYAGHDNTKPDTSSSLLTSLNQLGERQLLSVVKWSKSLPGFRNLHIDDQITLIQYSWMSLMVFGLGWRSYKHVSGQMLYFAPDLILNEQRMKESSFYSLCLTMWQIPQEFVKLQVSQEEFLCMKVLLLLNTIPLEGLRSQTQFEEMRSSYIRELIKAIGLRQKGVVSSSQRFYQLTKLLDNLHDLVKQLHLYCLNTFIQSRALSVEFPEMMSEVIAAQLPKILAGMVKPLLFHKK
As to the kind of experiment: Progesterone Receptor Binding Assay. The following applies: 22 °C.

The values below come from BindingDB's records for doi:10.1016/j.chembiol.2007.06.006 (Northwestern University, 2007).

pIC50: −log10 of the molar value.

With `C[C@]12CCC(=O)C=C1CCC1C2CC[C@@]2(C)C1CC[C@@H]2C(=O)COCCCCCCNC(=S)Nc1ccc(CC2C[N+]34CC[N+]56CC[N+]78CC[N+]29CC(=O)[O][Gd-5]5739([O]C(=O)C6)([O]C(=O)C8)[O]C(=O)C4)cc1` (some centres not stated) [Steroid-Gd (III) conjugate, 3], the pIC50 was 6.07.
Consider `C[C@]12CCC(=O)C=C1CCC1C2CC[C@@]2(C)C1CC[C@@H]2C(=O)COCCCCCC[N+]12CC[N+]34CC[N+]56CC[N+]7(CC1)CC(=O)[O][Gd-4]2375([O]C(=O)C4)[O]C(=O)C6` (some centres not stated) [Steroid-Gd (III) conjugate, 2], for which the pIC50 was 6.34.
